Reference: ChEMBL document CHEMBL1130488, “1,4-Diaryl-2-oxo-1,2-dihydro-quinoline-3-carboxylic acids as endothelin receptor antagonists” (Bioorg Med Chem Lett, 1997)

molecular target: T1, Endothelin-1 receptor (Rattus norvegicus, UniProt P26684); experiment: Inhibition of [125I]ET1 binding to rat aorta membranes(ETA); format: cell membranes, Membrane; conditions: not given
T1 sequence (P26684 whole entry): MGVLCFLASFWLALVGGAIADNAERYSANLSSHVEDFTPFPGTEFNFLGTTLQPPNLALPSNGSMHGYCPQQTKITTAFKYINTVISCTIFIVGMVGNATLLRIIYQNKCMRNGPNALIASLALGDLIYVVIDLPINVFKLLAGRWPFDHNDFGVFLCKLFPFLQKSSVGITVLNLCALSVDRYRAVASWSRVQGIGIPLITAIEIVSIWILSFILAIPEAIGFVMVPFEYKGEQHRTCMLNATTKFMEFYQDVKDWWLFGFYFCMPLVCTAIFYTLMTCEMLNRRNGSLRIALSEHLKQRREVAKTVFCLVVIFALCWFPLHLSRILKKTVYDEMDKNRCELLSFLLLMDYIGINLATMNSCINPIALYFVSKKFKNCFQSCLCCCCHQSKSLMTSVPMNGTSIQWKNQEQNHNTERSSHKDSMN

Row | SMILES | IC50 [nM]
1 | CCOc1ccc2c(c1)c(-c1ccc(OC)cc1)c(C(=O)O)c(=O)n2Cc1ccccc1OC | 1300
2 | CCOc1ccc2c(c1)c(-c1ccc3c(c1)OCO3)c(C(=O)O)c(=O)n2Cc1ccccc1OC | 380
3 | CCOc1ccc2c(c1)c(-c1ccc3c(c1)OCO3)c(C(=O)O)n2Cc1ccc(OC)cc1 | 130000
4 | CCOc1ccc2c(c1)c(-c1ccc(OC)cc1OC)c(C(=O)O)c(=O)n2Cc1ccccc1OC | 1200
5 | CCc1ccc2c(c1)c(-c1ccc3c(c1)OCO3)c(C(=O)O)c(=O)n2Cc1ccccc1OC | 1500
6 | COc1ccccc1Cn1c(=O)c(C(=O)O)c(-c2ccc3c(c2)OCO3)c2c(OC)c(OC)ccc21 | 3300
7 | COc1ccccc1Cn1c(=O)c(CC(=O)O)c(-c2ccc3c(c2)OCO3)c2ccccc21 | > 10000
8 | CCOc1ccc2c(c1)c(-c1ccc(OC)cc1)c(C(=O)O)c(=O)n2Cc1cc(OC)ccc1OC | 260

Results, then the molecule that gave them:

Row | IC50 [nM] | SMILES
9 | 2400 | COc1ccc(Cn2c(=O)c(C(=O)O)c(-c3ccc4c(c3)OCO4)c3ccccc32)cc1
10 | > 10000 | O=C(O)c1c(-c2ccc3c(c2)OCO3)c2ccccc2n(Cc2ccccc2)c1=O
11 | 2000 | COc1ccccc1Cn1c(=O)c(C(=O)O)c(-c2ccc3c(c2)OCO3)c2ccccc21
12 | 2600 | O=C(O)c1c(-c2ccc3c(c2)OCO3)c2ccccc2n(Cc2ccc3c(c2)OCO3)c1=O
13 | > 10000 | COc1cccc(Cn2c(=O)c(C(=O)O)c(-c3ccc4c(c3)OCO4)c3ccccc32)c1

molecular target: T1, Endothelin-1 receptor; experiment: Functional antagonism against ETA receptor in rat aortic rings expressed as pA2 value; conditions: read-out: pA2 (converted)

Row | Kb [nM] | SMILES
14 | 398 | CCOc1ccc2c(c1)c(-c1ccc3c(c1)OCO3)c(C(=O)O)n2Cc1ccc(OC)cc1
15 | 6310 | CCOc1ccc2c(c1)c(-c1ccc(OC)cc1)c(C(=O)O)c(=O)n2Cc1cc(OC)ccc1OC
